In series [1] the target is T1, bovine serum albumin (BSA) (Bos taurus, UniProt P02769). As for the experimental part: UV absorption measurement is a simple yet effective technique for examining structural changes and complex formation. […] Variations in the absorbance near 280 nm signify interactions with small molecule drugs.
Absorption spectra were recorded using a UV-vis spectrophotometer (T6 New Century) over the wavelength range of 200–400 nm.

Series [2] concerns the target T1, bovine serum albumin (BSA). Conditions: experimental ΔG versus docking ΔG at Site I.
Protocol: The three-dimensional structure of BSA was obtained from the RCSB Protein Data Bank (PDB) database (https://www.rcsb.org/) (PDB ID: 4f5s). […] Open Babel 3.1.1 software was utilized to convert the sdf format files from the PubChem database to pdb format. […] Additionally, the molecular visualization was conducted using Pymol version 2.6.0a0 for 3D visualization and LigPlot + version 2.2.8 for 2D visualization.
Series [3] addresses T1, bovine serum albumin (BSA). Put plainly: biochemical. Conditions: logKb.
Series [4] concerns the target T1, bovine serum albumin (BSA). Put plainly: biochemical. The source says: The inner filter effect (IFE) arises when high analyte concentrations (e.g., fluorophores, ligands, or biomolecules) attenuate excitation light or absorb emitted photons, effectively reducing the optical path length and consequently causing depressed fluorescence readings. To mitigate this phenomenon in our experimental system, we strategically optimized sample concentrations through preliminary calibration studies.
Fluorescence quenching mechanisms can be categorized into static, dynamic, and combined quenching. […] Combined quenching involves both mechanisms, where the fluorophore collides with and forms a stable complex with the quencher. These processes can be described by the Stern-Volmer equation[49]: [drawing 1]
Where F0 and F are the fluorescence intensities in the absence and presence of the quencher, respectively; KSV is the Stern-Volmer quenching constant; [Q] is the quencher concentration; Kq is the bimolecular quenching constant; and τ0 is the fluorescence lifetime in the absence of the quencher (6.3 × 10^− 9 s)[50]. […] (unit: mol/L), and the Y-axis represents the fluorescence intensity ratio F0/F. The data points represent the experimentally measured F0/F values, while the solid line is the linear fit. […] The slope obtained from the linear fit according to the Stern-Volmer equation represents the quenching constant (KSV).
The binding constant (Kb) is calculated using the following formula: […]
Where Kb is the binding constant, n is the number of binding sites per BSA molecule, F0 and F are the fluorescence intensities without and with the quencher, respectively, and [Q] is the quencher concentration. Linear regression is used to fit the data, resulting in a straight line whose slope indicates n (the number of binding sites), and the intercept gives logKb.
Where R is 8.314 J·mol^-1·K^-1, T is 298 K (273 + 25 °C), and Kb is the calculated binding constant.
Fluorescence spectra were acquired using a Hitachi F-7100 fluorescence spectrophotometer equipped with a 150 W xenon lamp and 10 mm quartz cuvette. The instrument parameters were maintained at excitation and emission bandwidths of 10 nm, with a scanning speed of 1200 nm·min^− 1 and PMT voltage of 400 V throughout the experiments.

Series [5] concerns the target T1, bovine serum albumin (BSA). The settings on record: for λex/λem: pH 7.4. The source says:
Three-dimensional fluorescence spectroscopy, or excitation-emission matrix (EEM) spectroscopy, offers distinct advantages and broad applications for analyzing interactions between small molecules and BSA[55].
The excitation wavelength was systematically scanned from 220 to 350 nm with 5 nm increments, while the emission spectra were simultaneously recorded across the 220–500 nm range at a scanning speed of 12,000 nm min^− 1. The excitation and emission slit widths were maintained at 10 nm throughout the measurements to ensure consistent spectral resolution.

Series [6] deals with T1, bovine serum albumin (BSA). The settings on record: for τave (average fluorescence lifetime): free BSA 3.72 ns. The source says:
In general, the fluorescence lifetime measurement is the most definitive method to distinguish between dynamic and static quenching.

Series [7] concerns the target T1, bovine serum albumin (BSA). Nature of the series: Job's method, stoichiometry of inclusion complexation with BSA. The series is classed as binding. The settings on record: [BSA] + [TPT] = 2.0 × 10^-6 mol/L, λex 295 nm.
Series [8] deals with T1, bovine serum albumin (BSA). The settings on record: van't Hoff plot, 293, 298 and 310 K, pH 7.4.
Details of series [9]: method as in none printed. Conditions: prolonged circulation; species and source not given; cited from earlier work.
For series [10], the target named is T1, bovine serum albumin (BSA). Put plainly: biochemical. The settings on record: LogKb, pH 7.4.
The mark [11] stands for this setting: BSA 1.0 × 10^-6 mol/L, drug 5.0 × 10^-6 mol/L.
[12] abbreviates: BSA 1.0 × 10^-6 mol/L, drug 5.0 × 10^-6 mol/L, phosphate buffer, 298.15 K.
[13] abbreviates: Site marker: Blank (no marker), BSA 1.0 × 10^-6 mol/L.
Where [14] appears, read: Site marker: Ibuprofen 2 × 10^-6 mol/L, BSA 1.0 × 10^-6 mol/L.
Where [15] appears, read: Site marker: Warfarin 2 × 10^-6 mol/L, BSA 1.0 × 10^-6 mol/L.
The mark [16] stands for this setting: BSA 1 × 10^-6 mol/L, drug 5 × 10^-6 mol/L, λex 295 nm, λem 350 nm.
The mark [17] stands for this setting: BSA 1 × 10^-6 mol/L, drug 5 × 10^-6 mol/L.
The mark [18] stands for this setting: BSA 2 × 10^-6 mol/L, drug 0–33 × 10^-6 mol/L, pH 7.4, 298.15 K.
Setting [19] is: BSA 2 × 10^-6 mol/L, pH 7.4, 298.15 K.
The mark [20] stands for this setting: BSA 2 × 10^-6 mol/L, phosphate buffer pH 7.40, λex 295 nm.
Where [21] appears, read: slope of double logarithmic plot, 298 K.
Where [22] appears, read: drug:BSA 5:1, Peak 1, BSA 3 × 10^-6 mol/L.
The mark [23] stands for this setting: drug:BSA 5:1, Peak 1, BSA alone 9750.
Setting [24] is: drug:BSA 5:1, Peak 1, blue shift.
Setting [25] is: drug:BSA 5:1, Peak 2, BSA 3 × 10^-6 mol/L.
Setting [26] is: drug:BSA 5:1, Peak 2, BSA alone 7937.
[27] abbreviates: drug:BSA 5:1, Peak 2, blue shift.
The mark [28] stands for this setting: drug:BSA 10:1, Peak 1, BSA 3 × 10^-6 mol/L.
Setting [29] is: drug:BSA 10:1, Peak 1, BSA alone 9750.
The mark [30] stands for this setting: drug:BSA 10:1, Peak 1, blue shift.
Setting [31] is: drug:BSA 10:1, Peak 2, BSA 3 × 10^-6 mol/L.
Setting [32] is: drug:BSA 10:1, Peak 2, BSA alone 7937.
[33] abbreviates: drug:BSA 10:1, Peak 2, blue shift.

“And” between values parts separate entries of the source, which are not always exact repeats. Identical values can stand only once. Like-named read-outs stand apart in the source and are kept apart here.

T1 sequence (P02769 25-607): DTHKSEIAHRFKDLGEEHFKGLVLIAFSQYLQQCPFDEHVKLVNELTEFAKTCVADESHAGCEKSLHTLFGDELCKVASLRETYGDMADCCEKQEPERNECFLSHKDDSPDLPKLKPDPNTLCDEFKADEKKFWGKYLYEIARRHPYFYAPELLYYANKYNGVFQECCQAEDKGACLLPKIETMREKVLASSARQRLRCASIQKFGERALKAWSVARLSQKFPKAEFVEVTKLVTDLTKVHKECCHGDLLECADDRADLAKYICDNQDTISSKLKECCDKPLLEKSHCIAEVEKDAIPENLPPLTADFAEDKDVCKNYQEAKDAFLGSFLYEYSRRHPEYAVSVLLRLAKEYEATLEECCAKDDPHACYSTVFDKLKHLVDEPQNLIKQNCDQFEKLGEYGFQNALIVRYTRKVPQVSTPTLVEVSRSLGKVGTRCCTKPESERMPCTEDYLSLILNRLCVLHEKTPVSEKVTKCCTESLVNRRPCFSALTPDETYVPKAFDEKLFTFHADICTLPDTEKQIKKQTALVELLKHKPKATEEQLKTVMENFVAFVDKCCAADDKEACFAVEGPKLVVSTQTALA

Broadly, the Kd is a measure of binding affinity in units of concentration. Read a low Kd as a tighter complex. In the case of `CC[C@@]1(O)C(=O)OCc2c1cc1n(c2=O)Cc2cc3cc(O)ccc3nc2-1` [10-HCPT, 10-Hydroxycamptothecin], in series [1] (setting [11]), the “blue shift of the UV absorption peak of BSA at 280 nm” value (“blue shift … at 280 nm” below) amounted to 2 nm. Also, the “Changes in absorption peaks (280 nm)” value in series [1] (setting [12]) was 280 nm→278 nm. For the same compound, the “ΔΔG between experimental and theoretical binding energy” value in series [2] is “≈ 10.51 kJ·mol^−1”. In series [3] (setting [13]), this compound showed a Kd of 120 µM. Further, in series [3] (setting [14]), the Kd is 44.7 µM. The compound further showed a dissociation constant (Kd) in series [3] (setting [15]) of 1510 µM. Further, in series [4], binding was characterised by a dissociation constant (Kd) of 121 µM, the “Kq (bimolecular quenching constant)” value is given as 23.79 ×10^11 L·mol^− 1·s^− 1 and the “n (number of binding sites per BSA molecule)” value came out at 0.8809. Moreover, in series [4] (pH 7.4), the “Ksv (Stern-Volmer quenching constant)” value is on record as 14.99 ×10^3 L·mol^− 1, the “Stern–Volmer equation Slope” value came out at 14986.88 ± 1787.60 and the “blue shift of the maximum fluorescence emission peak of BSA (Δλmax)” value (“blue shift … (Δλmax)” below) is listed as 11.8 nm. In series [5], the Emission maximum shift is 15 nm; the λex/λem is 225/325 and 275/325. In addition, in [6] (setting [16]), the “A1 (decay amplitude)” value came out at 0.8806, the “A2 (decay amplitude)” value is on record as 0.1858, the τ1 was 2.239 ns and the τ2 came out at 7.483 ns. Further, in series [6] (setting [17]), the “τave (average fluorescence lifetime)” value came to 4.41 ns.

For `CC[C@@]1(O)C(=O)OCc2c1cc1n(c2=O)Cc2cc3ccccc3nc2-1` [CPT, Camptothecin], the “blue shift … at 280 nm” value in series [1] (setting [11]) amounted to 3 nm. Moreover, the “Changes in absorption peaks (280 nm)” value in series [1] (setting [12]) is on record as 280 nm→277 nm. The Kd is 234 µM in series [3] (setting [13]), 759 µM in [3] (setting [14]), 5500 µM in [3] (setting [15]) and 236 µM in series [4]. The “Stern–Volmer equation Slope” value in series [4] (setting [18]) came to 18536.73 ± 2298.23. For the same compound, the “Ksv (Stern-Volmer quenching constant)” value in series [4] (setting [19]) is 18.53 ×10^3 L·mol^− 1. For the same compound, the “blue shift … (Δλmax)” value in series [4] (setting [20]) is on record as 1.4 nm. Further, the “Kq (bimolecular quenching constant)” value in [4] (Kq = KSV/τ0, τ0 6.3 × 10^-9 s) is on record as 29.41 ×10^11 L·mol^− 1·s^− 1. The “n (number of binding sites per BSA molecule)” value in series [4] (setting [21]) worked out at 0.8287. In addition, the “Reduction percent (fluorescence intensity)” value stood at 65% in [5] (drug:BSA 5:1, Peak 1); 30% in [5] (drug:BSA 5:1, Peak 2); 67% in series [5] (drug:BSA 10:1, Peak 1); 33% in series [5] (drug:BSA 10:1, Peak 2). Further, the λex/λem in series [5] (setting [22]) is on record as 275/340; in series [5] (setting [25]), 225/340; in [5] (setting [28]), 275/340; in [5] (setting [31]) it was 225/340. Besides, the Intensity amounted to 3382 in [5] (setting [23]), 5518 in [5] (setting [26]), 3179 in series [5] (setting [29]) and 5323 in series [5] (setting [32]). Moreover, the Emission maximum shift in series [5] (setting [24]), in [5] (setting [27]), in series [5] (setting [30]) and in series [5] (setting [33]) was 0 nm in each case. The “A1 (decay amplitude)” value in series [6] (setting [16]) came to 0.7855. For the same compound, the “A2 (decay amplitude)” value in [6] (setting [16]) was found to be 0.2263. The same compound gave a τ1 in [6] (setting [16]) of 1.889 ns. The same compound showed a τ2 in series [6] (setting [16]) of 5.78 ns. In addition, the “τave (average fluorescence lifetime)” value in [6] (setting [17]) came out at 3.71 ns.

On to `CCc1c2c(nc3ccc(OC(=O)N4CCC(N5CCCCC5)CC4)cc13)-c1cc3c(c(=O)n1C2)COC(=O)[C@]3(O)CC` [CPT-11, Irinotecan], for which the “Changes in absorption peaks (280 nm)” value in series [1] is listed as 280 nm→258 nm. For the same compound, the τ2 in [6] was found to be 7.79 ns.

On to `CC[C@@]1(O)C(=O)OCc2c1cc1n(c2=O)Cc2cc3c(CN(C)C)c(O)ccc3nc2-1` [TPT, Topotecan], for which the “molar fraction at maximum fluorescence intensity change (Job's plot)” value in series [7] was 0.5. This compound had a ΔS in [8] of 0.066 kJ·mol^− 1·K^− 1. Also, the “circulation t1/2” value in series [9] is recorded as “≈ 8 h”. In addition, in [1] (setting [11]), the “blue shift … at 280 nm” value amounted to 12 nm. Moreover, the “Changes in absorption peaks (280 nm)” value in series [1] (setting [12]) is 280 nm→268 nm. Further, the Kd is 12.6 µM and 6.61 µM and 12 µM in series [3]; 11 µM in series [4]; 3.98 µM in series [10] (293 K); 4.37 µM in [10] (298 K); 5.13 µM in series [10] (310 K). Besides, the “Stern–Volmer equation Slope” value in [4] (setting [18]) was 29101.32 ± 782.38. In series [4] (setting [19]), the “Ksv (Stern-Volmer quenching constant)” value was 29.10 ×10^3 L·mol^− 1. In [4] (setting [20]), the “blue shift … (Δλmax)” value came to 1.0 nm. In addition, the “Kq (bimolecular quenching constant)” value in [4] (Kq = KSV/τ0, τ0 6.3 × 10^-9 s) is 46.19 ×10^11 L·mol^− 1·s^− 1. The “KSV” value in series [4] (as quoted in the discussion of Table 2) is 29.10 × 10^2 M^− 1. In addition, the “n (number of binding sites per BSA molecule)” value in series [4] (setting [21]) worked out at 1.1165. Moreover, the λex/λem was 275/340 in [5] (setting [22]), 225/340 in [5] (setting [25]), 275/325 in [5] (setting [28]) and 225/320 in series [5] (setting [31]). Moreover, the Intensity in series [5] (setting [23]) was 8453; in [5] (setting [26]), 5380; in series [5] (setting [29]), 4956; in [5] (setting [32]), 2777. The Emission maximum shift in series [5] (setting [24]) worked out at 0 nm; in series [5] (setting [27]), 0 nm; in series [5] (setting [30]) it was 15 nm; in [5] (setting [33]), 20 nm. In series [6] (setting [16]), the “A1 (decay amplitude)” value was determined as 0.8636. For the same compound, in [6] (setting [16]), the “A2 (decay amplitude)” value is 0.1543. The compound further gave a τ1 in [6] (setting [16]) of 1.699 ns. This compound yielded a τ2 in series [6] (setting [16]) of 7.6602 ns. Further, the “τave (average fluorescence lifetime)” value in [6] (setting [17]) is on record as 4.36 ns.

These data come from article PMC11889159 (Scientific Reports, 2025).
